Patent US5583000A, “Protease-binding compounds and methods of use” (priority 1993, dated 1996)
≈ marks a conversion by molar mass, not a printed value. Where two headings read alike, the source gives them in different places.

What was measured:
HIV-2 protease = target: T1, HIV-2 protease (Human immunodeficiency virus type 2 subtype A, UniProt P04584); assay: biochemical; conditions: 1M NaCl
T1 construct: the coding region of the 99-amino acid protease; made in house; host or cells: Saccharomyces cerevisiae strain AB110, plasmid pHIV2PR115
T1 sequence (P04584 514-612 limits assumed): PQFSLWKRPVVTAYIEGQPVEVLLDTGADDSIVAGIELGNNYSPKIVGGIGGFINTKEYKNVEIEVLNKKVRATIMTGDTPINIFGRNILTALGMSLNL
Procedure: The decapeptide was synthesized by conventional solid-state methods. Reactions were carried out and fractionated by HPLC. Conversion of the decapeptide to the two pentapeptides was quantitated by integration of the peak areas and comparison to product standard curves.
Enzymatic Inhibition. […] Each data point was done in triplicate and initial enzyme rates were fit to the Michaelis-Menten equation using a nonlinear regression program ("Enzfitter" from Biosoft).

HIV-1 protease = HIV-1 protease (Human immunodeficiency virus type 1 group M subtype B, UniProt P03369); assay: biochemical
[1] = HIV-1 Protease IC50 (μM) 1M NaCl
[2] = read-out: HIV-1 Protease IC50 (μM) 1M NaCl
[3] = HIV-1 Protease IC50 (μM) 1M NaCl, 1M NaCl

Procedure for in vitro: Cytotoxicity. The MTT assay was performed as follows:
The cells were seeded in 96-well plates and grown overnight to near 50% confluency. A serial dilution (1 to 500 μM) of each compound in culture media was prepared and 250 μL/well was added in duplicate. The cells were allowed to grow for various periods of time (6, 24, 48 hours) and any precipitation of compounds in the wells was noted. The assay was performed by removing 200 μL of the culture media and adding 25 μL of MTT solution (2 mg/mL in phosphate buffered saline (PBS)). This was incubated for 4 hours at 37° C. and live cells began to turn purple while the solution remained yellow. To quench the reaction and solubilize the reaction product, 160 μL of acidified isopropanol (4 mL 1N HCl for 96 mL alcohol) were added and the resulting mixture was mixed vigorously to dissolve purple crystals. Absorbance was determined at 550-570 nm on an ELISA plate reader within 0.5-2 hours. […] To obtain the LD50 values for each compound, the concentration at which the absorbance is haft of that for the untreated cells was determined.

| Compound | IC50 (HIV-2 protease) [µM] | HIV-1 Protease Therapeutic Index (LD50 /IC50) (HIV-1 protease) | IC50 (HIV-1 protease; [1]) [µM] | CC50 at 6 h (in vitro) [µM] | solubility (physchem) [µM] | also measured |
| --- | --- | --- | --- | --- | --- | --- |
| C[C@@H]1SC(CCCN2CCC(O)(c3ccc(Cl)cc3)CC2)(c2ccc(F)cc2)S[C@H]1C (relative stereo) [UCSF12, (trans-2,3-butanethioacetal)-4-[4-(p-chlorophenyl)-4-hydroxypiperidinyl]-4'-fluorobutyro-phenone] | 50 | 0.5 | 350 | 35 | < 250 |  |
| C[C@@H]1SC(CCCN2CCC(O)(c3ccc(Cl)cc3)CC2)(c2ccc(F)cc2)S[C@@H]1C (relative stereo) [UCSF64] | 29 |  | 16 | 25 | < 50 |  |
| O=C(CCC[N+]1([O-])CCC(O)(c2ccc(Cl)cc2)CC1)c1ccc(F)cc1 (centres unmarked) [UCSF3, 4-[4-(p-chlorophenyl)-4-hydroxy-N-oxopiperidinyl]-4'-fluorobutyrophenone] | 135 | > 2.5 | 100 | > 500 | < 250 |  |
| ON=C(CCCN1CCC(O)(c2ccc(Cl)cc2)CC1)c1ccc(F)cc1 [UCSF4, 4-[4-(p-chlorophenyl)-4-hydroxypiperidinyl]-4'-fluorobutyrophenone oxime] | 116 | 0.7 | 100 |  | > 250 |  |
| C[N+]1(CCCC(=O)c2ccc(F)cc2)CCC(O)(c2ccc(Cl)cc2)CC1 (centres unmarked) [UCSF5, 4-[4-(p-chlorophenyl)-4-hydroxy-N-methylpiperidinyl]-4'-fluorobutyrophenone] | > 1000 | > 6.3 | 79 | > 500 | > 250 |  |
| CC(=O)OC1(c2ccc(Cl)cc2)CCN(CCCC(=O)c2ccc(F)cc2)CC1 [UCSF6, 4-[4-(p-chlorophenyl)-4-acetoxypiperidinyl]-4'-fluorobutyrophenone] | 533 |  |  | 250 | > 250 | IC50 (HIV-1 protease; 1M NaCl): 725 µM; HIV-1 Protease Therapeutic Index (LD50 /IC50) (HIV-1 protease; LD50/IC50): 0.3 |
| NN=C(CCCN1CCC(O)(c2ccc(Cl)cc2)CC1)c1ccc(F)cc1 [UCSF7, 4-[4-(p-chlorophenyl)-4-hydroxypiperidinyl]-4'-fluorobutyrophenone hydrazone] | 200 | 0.9 | 100 |  | > 250 |  |
| OC1(c2ccc(Cl)cc2)CCN(CCCC2(c3ccc(F)cc3)SCCCS2)CC1 [UCSF10, (1,3-propanethioacetal)-4-[4-(p-chlorophenyl)-4-hydroxypiperidinyl]-4'-fluorobutyrophenone] | 88 | 2 | 15 | 30 | < 100 |  |
| O=C(CCCN1CC=C(c2ccc(Cl)cc2)CC1)c1ccc(F)cc1 [UCSF11, 4-[4-(p-chlorophenyl)]-N-[4-(4'-fluorobutyrophenone)]-1,2,5,6-tetrahydropyridine] | 310 |  |  | 250 | < 250 | IC50 (HIV-1 protease; 1M NaCl): 750 µM; HIV-1 Protease Therapeutic Index (LD50 /IC50) (HIV-1 protease; LD50/IC50): 0.3 |
| OCCNN=C(CCCN1CCC(O)(c2ccc(Cl)cc2)CC1)c1ccc(F)cc1 [UCSF14] | 90 | 10 | 50 | 500 | 500 (≈ 217 µg/mL) |  |
| O=C(CCC[N+]1(CCc2ccccc2)CCC(O)(c2ccc(Cl)cc2)CC1)c1ccc(F)cc1 (centres unmarked) [UCSF15, 4-[4-(p-chlorophenyl)-4-hydroxy-[N-(2-phenyl)ethyl]piperidinyl]-4'-fluorobutyrophenone] | 250 | 0.3 | 150 |  | > 250 |  |
| OC1(c2ccc(Cl)cc2)CCN(CCCC2(c3ccc(F)cc3)OCCO2)CC1 [UCSF16, (1,2-ethyloxoacetal)-4-[4-(p-chlorophenyl)-4-hydroxypiperidinyl]-4'-fluorobutyrophenone] |  | 2 |  | 150 | > 250 | IC50 (HIV-2 protease; read-out: HIV-2 Protease IC50 (μM) 1M NaCl): 238 µM; IC50 (HIV-1 protease; [2]): 75 µM |
| O=C(CCC[n+]1ccc(-c2ccc(Cl)cc2)cc1)c1ccc(F)cc1 [UCSF17, 4-[4-(p-chlorophenyl)l-N-[4-(4'-fluorobutyrophenone)]pyridinium bromide] |  |  |  | 500 | > 250 | IC50 (HIV-1 protease; 1M NaCl): 1200 µM; HIV-1 Protease Therapeutic Index (LD50 /IC50) (HIV-1 protease; LD50/IC50): 0.4 |
| OC1(c2ccc(Cl)cc2)CCN(CCCC2(c3ccc(F)cc3)SCc3ccccc3CS2)CC1 [UCSF18, (1,2-benzene-dimethanethioacetal)-4-[4-(p-chlorophenyl)-4-hydroxypiperidinyl]-4'-fluorobutyrophenone] | 10 | 1.4 | 25 | 35 | > 250 |  |
| O=C(CCCN1CCC(c2ccccc2)CC1)c1ccc(F)cc1 [UCSF19] | 323 |  |  |  |  | IC50 (HIV-1 protease; [3]): 250 µM |
| O=C(CCCN1CCC(O)(c2ccc(Cl)cc2)C(O)C1)c1ccc(F)cc1 (centres unmarked) [UCSF20, 4-[4-(p-chlorophenyl)-3,4-dihydroxypiperidinyl)-4'-fluorobutyrophenone] |  | 0.26 | 675 |  | > 250 |  |
| OC1(c2ccc(Cl)cc2)CCN(CCCC2(c3ccc(F)cc3)SCc3cccc(c3)CS2)CC1 [UCSF21, (1,3-benzenedimethanethioacetal)-4-[4-(p-chlorophenyl)-4-hydroxypiperidinyl]-4'-fluorobutyrophenone] | 75 | > 20(10) | 25 | > 500 | < 250 |  |
| OC1(c2ccc(Cl)cc2)CCN(CCCC(O)(c2ccccc2)c2ccc(F)cc2)CC1 (centres unmarked) [UCSF24, 4-[4-(p-chlorophenyl)-4-hydroxypiperidinyl]-1-phenyl-1-(p-fluorophenyl)-butan-1-ol] |  | 0.4 | 62 | 25 | > 200 |  |
| OC1(c2ccc(Cl)cc2)CCN(CCCC(O)(Cc2ccccc2)c2ccc(F)cc2)CC1 (centres unmarked) [UCSF25] | 75 | 0.2 | 87 | 20 |  |  |
| O=C(CCCN1CCC(O)(c2ccccc2)CC1)c1ccc2ccccc2n1 [UCSF27] |  | 2(1) |  | 400 | < 200 | IC50 (HIV-1 protease; [2]): 198 µM |
| OC1(c2ccccc2)CCN(CCCC2(c3ccc(F)cc3)OCCO2)CC1 [UCSF28, (1,2-ethyloxoacetal)-4-(4-phenyl-4-hydroxypiperidinyl)-4'-fluorobutyrophenone] |  | 1.2 | 410 | > 500 | > 500 |  |
| OC1(c2ccccc2)CCN(CCCC(O)(c2ccccc2)c2ccc3ccccc3n2)CC1 (stereo not drawn) [UCSF32, 4-(4-phenyl-4-hydroxypiperidinyl)-1-phenyl-1-[α-(2-azanaphthyl)]-butan-1-ol] | 80 | 0.4 | 60 | 25 |  |  |
| O=C(CCCN1CCC(O)(c2ccc(Cl)cc2)CC1)c1ccncc1 [UCSF35] |  | > 0.8 |  | > 500 | > 500 | IC50 (HIV-1 protease; [2]): 650 µM |
| O=C(CCCC1(O)CCC(O)(c2ccc(Cl)cc2)CC1)c1ccccc1 (centres unmarked) [UCSF45] |  |  |  |  |  | IC50 (HIV-1 protease; [3]): > 1000 µM |
| Cc1ccc(C2(CCC(c3ccccc3)N3CCC(O)(c4ccc(Cl)cc4)CC3)SCCS2)cc1 (centres unmarked) [UCSF48] | 10 |  | 7 |  |  | inhibition of HIV-1 protease at the lower salt concentrations (HIV-1 protease): Very little inhibition; inhibition of HIV-1 protease compared with other compounds (HIV-1 protease): slightly better inhibitor than USCF42 at 1M NaCl |
| OCC1(c2ccccc2)CCN(CCCC2(c3ccc(F)cc3)OCCO2)CC1 [UCSF53] |  |  | > 2500 | 500 | < 50 |  |
